# Laboratory results from patent US20240197742A1, “Therapeutic Combinations of a CD19 Inhibitor and a BTK Inhibitor” (Acerta Pharma B.V., priority 2015, published 2024).
# “Also recorded” adds a separate entry of the source.
# Key:
# [1] = system: B cell receptor; test: Whole blood potency: CD69 on CD19+ B cells after anti-human IgD; format: cell-based; conditions: blood from four healthy donors, 2 hours with compound, anti-human IgD 10 μg/mL 18 hours, read-out: EC50, CD69 on gated CD19+ B cells in whole blood
# [2] = system: CD8+ T cells; test: CD8+ T cell viability; format: cell-based; conditions: anti-TCR and anti-CD28 coated wells, neutral conditions, 4 days
# Method: Total T cells were plated on anti-TCR and anti-CD28 coated wells in the presence of both BTK inhibitors. Neutral culture conditions were used that will not polarize T cells to a helper lineage. […] Statistical significance was calculated using the Mann Whitney T-test.
# [3] = system: CD8+ T cells; test: Cytotoxic T cell (CTL) assay; format: cell-based; conditions: 500 nM, relative to vehicle
# Method: Without being bound by any theory, CD8^+ T cells have two primary effector functions: (1) produce large amounts of IFN-γ (which activates macrophages), and (2) cytolytic activity. […] The targets were B lymphoblasts from lipopolysaccharide (LPS) treated cultures. The assay was performed by incubating different ratios of effectors:targets for 4 hours.
# [4] = within the tested dose range (through 840 mg); cited from earlier work
# [5] = system: Raji; test: ADCC chromium release assay, Raji targets; format: cell-based, human; conditions: 1 μM; all rituximab concentrations; healthy donor NK cells
# Method: All in vitro experiments were performed in triplicate.
# ADCC assays were performed as follows. Briefly, target cells (Raji or primary CLL) were labeled by incubation at 37° C. with 100 μCi ^51Cr for 4 hours prior to co-culture with NK cells. Cells were washed, enumerated, and then added in triplicate to prepared 96-well plates containing treated NK cells at an effector:target (E:T) ratio of 25:1. […] Cultures were incubated at 37° C. for 4 hours, and then centrifuged. Supernatants were harvested and ^51Cr release was measured by liquid scintillation counting. All experiments were performed in triplicate.
# [6] = system: Th17 cells; test: Th17 development from enriched CD4+ T cells; format: cell-based; conditions: anti-TCRβ plus anti-CD28, skewing cytokines, 4 days
# Method: (§1) Enriched CD4^+ T cells are plated on 24-well culture dishes that have been precoated 2 hr with 250 μL anti-TCRβ (0.5 μg/mL) plus anti-CD28 (5 μg/mL) at 37° C. in PBS. The cells are then supplemented with media containing BTK inhibitors along with the skewing cytokines as indicated in the following. The Th17 and Treg cultures are grown for 4 days before analysis. The cells are maintained for an additional 3 days with skewing cytokines (Th17; 20 ng/mL IL-6, 0.5 ng/mL TGF-β, 5 μg/mL IL-4, 5 μg/mL IFN-γ and Treg; 0.5 ng/mL TGF-β, 5 μg/mL IL-4, 5 μg/mL IFN-γ) and are supplemented with IL2 as a growth factor.
# [7] = system: regulatory T cell (Treg); test: Treg development from enriched CD4+ T cells; format: cell-based; conditions: anti-TCRβ plus anti-CD28, skewing cytokines, 4 days
# Method: as §1
# [8] = system: GPVI; test: GPVI platelet aggregation (convulxin); format: cell-based, human
# Method: GPVI platelet aggregation was measured for Formula (2) and Formula (10) (ibrutinib). Blood was obtained from untreated humans, and platelets were purified from […] by centrifugation. Cells were resuspended to a final concentration of 350,000/μL in buffer containing 145 mmol/L NaCl, 10 mmol/L HEPES, 0.5 mmol/L Na2HPO4, 5 mmol/L KCl, 2 mmol/L MgCl2, 1 mmol/L CaCl2, and 0.1% glucose, at pH 7.4. Stock solutions of Convulxin (CVX) GPVI were prepared on the day of experimentation and added to platelet suspensions 5 minutes (37° C., 1200 rpm) before the induction of aggregation. Aggregation was assessed with a Chronolog Lumi-Aggregometer (model 540 VS; Chronolog, Havertown, PA) and permitted to proceed for 6 minutes after the addition of agonist. The results are reported as maximum percent change in light transmittance from baseline with platelet buffer used as a reference.
# In FIG. 72, the results of CVX-induced (250 ng/mL) human platelet aggregation results before and 15 minutes after administration of the BTK inhibitors to 6 healthy individuals are shown.
SMILES,EC50 [1] [nM],effect on CD8+ T cell viability [2],CD8+ T cell function as measured by % cytotoxicity ([3]; 4 days CTL generation),CD8+ T cell function as measured by IFN-γ level [3],maximum tolerated dose (MTD) [4],"cell lysis, Raji [5] [%]",effect on Th17 cells / Th17 development [6],effect on Th17 cells / Th17 development ([6]; listed as ibrutinib),effect on Treg development [7],effect on Treg development ([7]; listed as ibrutinib),effect on GPVI platelet aggregation ([8]; CVX-induced human platelet aggregation),"IC50 ([8]; purified human platelets, convulxin (CVX)) [nM]"
"C=CC(=O)N1CCC[C@@H](n2nc(-c3ccc(Oc4ccccc4)cc3)c3c(N)ncnc32)C1 [Formula (10), 1-[(3R)-3-[4-amino-3-(4-phenoxyphenyl)-1H-pyrazolo[3,4-d]pyrimidin-1-yl]piperidin-1-yl]prop-2-en-1-one]",6.1,"strong, negative effect; also recorded: strongly affects",affects,significant loss of function; also recorded: affects,No maximum tolerated dose (MTD) was apparent,< 20,strongly inhibits,profound inhibition,strongly increases,increase,significantly inhibits,130
"C=CC(=O)Nc1cccc(Nc2nc(Nc3ccc(OCCOC)cc3)ncc2F)c1 [Formula (17), N-(3-((5-fluoro-2-((4-(2-methoxyethoxy)phenyl)amino)pyrimidin-4-yl)amino)phenyl)acrylamide]",121,–,–,–,–,–,–,–,–,–,–,–
